Values quoted from earlier work, collected in article PMC7377376, “Drug targeting CYP2E1 for the treatment of early-stage alcoholic steatohepatitis” (PLoS ONE, 2020).

Design: method as in earlier work
Conditions: compared among I-ol, I-an and I-phosphocholines; ref "ω-imidazolyl-alkyl derivatives as new preclinical drug candidates for NASH therapy"; cited from earlier work

OCCCCCCCCCCCCn1ccnc1 [I-ol]
tolerability in acute toxicity study (in words): best tolerated compound
